Target: T1, human GPR84 receptor (Homo sapiens, UniProt Q9NQS5)
T1 construct: host or cells: HEK293, transient transfection
Assay: Gαi biosensor BRET assay in HEK293 cells (antagonism of ZQ-16)
Type: cell-based
Settings: HEK293, single concentration 2 μM (designated A)
Procedure, shortened: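 Antagonist mode: test compound 5 min at 37° C, followed by ZQ-16 agonist (200 nmol/L, 5 min, room temperature), in HEK293 cells transfected with GPR84 plus Rluc8-tagged Gαi2, GFP10-Gγ2 and Gβ1. Readout as GFP10/Rluc8 emission ratio after 5 μmol/L coelenterazine 400A, net of Rluc8-only and vehicle signal.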

T1 sequence (Q9NQS5 whole entry): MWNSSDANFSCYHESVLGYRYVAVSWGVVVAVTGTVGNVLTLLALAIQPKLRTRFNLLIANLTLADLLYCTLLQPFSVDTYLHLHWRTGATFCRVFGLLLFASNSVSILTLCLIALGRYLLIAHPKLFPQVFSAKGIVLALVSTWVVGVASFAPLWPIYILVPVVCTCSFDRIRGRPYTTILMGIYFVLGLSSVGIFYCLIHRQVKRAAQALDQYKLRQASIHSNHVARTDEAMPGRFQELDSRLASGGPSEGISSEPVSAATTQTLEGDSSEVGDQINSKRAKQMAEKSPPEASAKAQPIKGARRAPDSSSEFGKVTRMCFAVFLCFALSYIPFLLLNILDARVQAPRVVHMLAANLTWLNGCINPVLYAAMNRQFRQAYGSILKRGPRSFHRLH

| Compound | inhibition at 2 µM [%] |
| --- | --- |
| Clc1cc(C#CC2CC2)cnc1-c1cn(CC2OCC3(CCC3)O2)nn1 (centres unmarked) [Compound I-806] | > 75 |
| Cc1ccc(C#CC2CC2)cc1-c1cn(Cc2ncccn2)nn1 [Compound I-293] | > 75 |
| Cc1c(-c2cn(CC3CCCCO3)nn2)ccc(C#CC2CC2)c1F (centres unmarked) [Compound I-505] | ≤ 25 |
| CC(C)Oc1cc(N2CC(C)(C)C2)ccc1-c1cn(CC2CCCCO2)nn1 (centres unmarked) [Compound I-271] | > 75 |

Same assay, conditions: HEK293, single concentration 10 μM (designated F)

| Compound | inhibition at 10 µM [%] |
| --- | --- |
| CC(C)Oc1cc(C#CC2CC2)cnc1-c1cn(CC2OCC3(CCC3)O2)nn1 (centres unmarked) [Compound I-797] | > 75 |
| Cc1cc(N2CCC(O)CC2)ccc1-c1cn(CC2CCCCO2)nn1 (centres unmarked) [Compound I-449] | 25 to 50 |
| N#Cc1cc(C#CC2CC2)ccc1-c1cn(CC2CCCCO2)nn1 (centres unmarked) [Compound I-133] | 50 to 75 |
| Cc1cc(N2CC(CO)C2)ccc1-c1cn(CC2CCCCO2)nn1 (centres unmarked) [Compound I-471] | > 75 |
| CN(C)c1cc(N2CC(C)(C(=O)O)C2)ccc1-c1cn(CC2OCC(C)(C)CO2)nn1 [Compound I-696] | 25 to 50 |
| Cc1cc(C2CCN(Cc3ccccn3)CC2)cnc1Cc1cn(CC2CCCCO2)nn1 (centres unmarked) [Compound I-504] | ≤ 25 |
| CCc1ccc(C#CC2CC2)cc1-c1cn(CC2CCCCO2)nn1 (centres unmarked) [Compound I-160] | > 75 |
| Cc1cc(N2CC3(CCCN3c3ccccn3)C2)ccc1-c1cn(CC2CCCCO2)nn1 (centres unmarked) [Compound I-623] | 50 to 75 |
| Cc1cc(N2CCC3(CC2)CN(Cc2ccccn2)C3)ccc1-c1cn(CC2CCCCO2)nn1 (centres unmarked) [Compound I-521] | ≤ 25 |
| Cc1cc(C#CC2CC2)ccc1-c1cn(CC2CCC(C)(C)O2)nn1 (centres unmarked) [Compound I-164] | > 75 |
| CC(c1cncc(C#CC2CC2)c1)c1cn(CC2CCCCO2)nn1 (centres unmarked) [Compound I-426] | 25 to 50 |
| CN(C)c1cc(N2CC(C)(CO)C2)ccc1-c1cn(CC2OCC(C)(C)CO2)nn1 [Compound I-654] | > 75 |
| Cc1cc(C#CC2CC2)ccc1-c1cn(CC2OCC(F)(F)CO2)nn1 [Compound I-670] | 50 to 75 |
| CC(c1cc(C#CC2CC2)ccn1)c1cn(CC2CCCCO2)nn1 (centres unmarked) [Compound I-633] | 50 to 75 |
| Cc1ccc(C#CC2CC2)cc1C1(c2cn(CC3CCCCO3)nn2)OCCO1 (centres unmarked) [Compound I-604] | > 75 |
| Cc1cc(N2CC3(CN(c4cccnc4)C3)C2)ccc1-c1cn(CC2CCCCO2)nn1 (centres unmarked) [Compound I-629] | ≤ 25 |
| Cc1ccc(C#CC2CC2)cc1-c1cn(CC2OCCCC2(C)C)nn1 (centres unmarked) [Compound I-568] | ≤ 25 |
| CC(C)C#Cc1cnc(-c2cn(CC3OCC4(CC4)CO3)nn2)c(OC2CC2)c1 [Compound I-861] | > 75 |
| CC(=O)N1CCN(c2ccc(-c3cn(CC4CCCCO4)nn3)c(C)c2)CC1 (centres unmarked) [Compound I-112] | ≤ 25 |
| C(#Cc1ccc(-c2cn(CC3CCCCO3)nn2)cc1)CC1CC1 (centres unmarked) [Compound I-44] | ≤ 25 |
| CC(C)Oc1cc(N2CC(C)(CO)C2)cnc1-c1cn(CC2CC(C)(C)CO2)nn1 (centres unmarked) [Compound I-501] | > 75 |
| Cc1cc(N2CCN(Cc3ccncn3)CC2)ccc1-c1cn(CC2CCCCO2)nn1 (centres unmarked) [Compound I-565] | 50 to 75 |
| Cc1cc(N2CC(C)(C)C2)cnc1-c1cn(CC2OCC(C)(C)CO2)cn1 [Compound I-726] | > 75 |
| Cc1cc(N2CC(C(C)(C)O)C2)ccc1-c1cn(CC2CCCCO2)nn1 (centres unmarked) [Compound I-477] | 50 to 75 |

Same assay, conditions: HEK293, single concentration 25 μM (designated I)

| Compound | inhibition at 25 µM [%] |
| --- | --- |
| Cc1c(-c2cccc(C#CC3CC3)c2)cnn1CC1CCCCO1 (centres unmarked) [Compound I-322] | ≤ 25 |
| Cc1ccc(-c2cccc(-c3nnn(C[C@H]4CCCCO4)n3)c2)cn1 [Compound I-5] | 25 to 50 |
| C(#CC1CC1)c1ccc(-c2cn(CC3CCCCO3)nn2)s1 (centres unmarked) [Compound I-38] | 50 to 75 |
| C(#CC1CC1)c1ccc(-c2nnn(CC3COCCO3)n2)cc1 (centres unmarked) [Compound I-3] | ≤ 25 |

Same assay, conditions: HEK293 cells, antagonism of 200 nmol/L ZQ-16

| Compound | IC50 [nM] |
| --- | --- |
| CC(C)Oc1cc(C#CC2CC2)cnc1-c1cn(CC2OCC3(CCC3)O2)nn1 (centres unmarked) [Compound I-797] | ≤ 300 |
| CCc1ccc(C#CC2CC2)cc1-c1cn(CC2CCCCO2)nn1 (centres unmarked) [Compound I-160] | > 3000 |
| Cc1cc(C#CC2CC2)ccc1-c1cn(CC2CCC(C)(C)O2)nn1 (centres unmarked) [Compound I-164] | 1000 to 3000 |
| CN(C)c1cc(N2CC(C)(CO)C2)ccc1-c1cn(CC2OCC(C)(C)CO2)nn1 [Compound I-654] | ≤ 300 |
| Cc1ccc(C#CC2CC2)cc1C1(c2cn(CC3CCCCO3)nn2)OCCO1 (centres unmarked) [Compound I-604] | 1000 to 3000 |
| CC(C)Oc1cc(N2CC(C)(CO)C2)cnc1-c1cn(CC2CC(C)(C)CO2)nn1 (centres unmarked) [Compound I-501] | 1000 to 3000 |

From patent US12617777B2, “GPR84 antagonists and uses thereof” (Liminal BioSciences Limited, priority 2021, dated 2026)
